Where two headings read alike, the source gives them in different places.
What was measured:
[1] = target: α7 nAChR (Homo sapiens, UniProt P36544)
[2] = target: α3β4 nAChR (Homo sapiens, UniProt P30926+P32297)
[3] = target: T1, 5HT3 receptors (Homo sapiens, UniProt P46098); details: cited from earlier work
T1 sequence (P46098 24-478): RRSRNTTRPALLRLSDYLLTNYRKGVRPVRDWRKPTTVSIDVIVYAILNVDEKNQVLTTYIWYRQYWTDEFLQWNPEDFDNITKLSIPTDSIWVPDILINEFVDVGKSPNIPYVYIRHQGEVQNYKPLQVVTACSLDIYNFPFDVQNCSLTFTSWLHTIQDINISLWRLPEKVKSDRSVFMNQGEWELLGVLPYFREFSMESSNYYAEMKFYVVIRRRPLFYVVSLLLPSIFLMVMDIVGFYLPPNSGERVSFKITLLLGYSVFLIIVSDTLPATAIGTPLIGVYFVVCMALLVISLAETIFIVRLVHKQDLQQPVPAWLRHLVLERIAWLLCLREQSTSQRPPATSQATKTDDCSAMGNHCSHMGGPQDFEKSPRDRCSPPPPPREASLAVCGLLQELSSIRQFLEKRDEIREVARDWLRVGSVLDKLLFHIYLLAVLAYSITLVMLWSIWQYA

[4] = target: T2, α4β2 nAChR (Homo sapiens, UniProt P17787+P43681); assay: cell-based; type: cell-based
T2 sequence (P43681 29-627 limits assumed): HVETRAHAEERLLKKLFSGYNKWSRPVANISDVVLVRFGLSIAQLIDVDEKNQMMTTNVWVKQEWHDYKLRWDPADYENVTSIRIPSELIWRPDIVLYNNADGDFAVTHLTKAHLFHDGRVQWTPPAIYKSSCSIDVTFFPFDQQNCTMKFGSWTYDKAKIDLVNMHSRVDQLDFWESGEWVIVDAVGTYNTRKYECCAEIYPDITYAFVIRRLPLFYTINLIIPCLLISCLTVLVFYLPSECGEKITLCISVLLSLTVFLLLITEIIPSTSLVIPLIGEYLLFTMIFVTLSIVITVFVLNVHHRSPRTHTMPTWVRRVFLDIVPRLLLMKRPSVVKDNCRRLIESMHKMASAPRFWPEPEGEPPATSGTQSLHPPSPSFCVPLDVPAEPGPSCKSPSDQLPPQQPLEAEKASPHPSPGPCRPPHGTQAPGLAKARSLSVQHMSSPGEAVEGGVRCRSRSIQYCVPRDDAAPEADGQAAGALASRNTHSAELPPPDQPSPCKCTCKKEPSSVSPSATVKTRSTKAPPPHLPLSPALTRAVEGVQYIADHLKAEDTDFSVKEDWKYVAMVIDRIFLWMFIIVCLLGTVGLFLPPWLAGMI
T2 sequence (P17787 26-502): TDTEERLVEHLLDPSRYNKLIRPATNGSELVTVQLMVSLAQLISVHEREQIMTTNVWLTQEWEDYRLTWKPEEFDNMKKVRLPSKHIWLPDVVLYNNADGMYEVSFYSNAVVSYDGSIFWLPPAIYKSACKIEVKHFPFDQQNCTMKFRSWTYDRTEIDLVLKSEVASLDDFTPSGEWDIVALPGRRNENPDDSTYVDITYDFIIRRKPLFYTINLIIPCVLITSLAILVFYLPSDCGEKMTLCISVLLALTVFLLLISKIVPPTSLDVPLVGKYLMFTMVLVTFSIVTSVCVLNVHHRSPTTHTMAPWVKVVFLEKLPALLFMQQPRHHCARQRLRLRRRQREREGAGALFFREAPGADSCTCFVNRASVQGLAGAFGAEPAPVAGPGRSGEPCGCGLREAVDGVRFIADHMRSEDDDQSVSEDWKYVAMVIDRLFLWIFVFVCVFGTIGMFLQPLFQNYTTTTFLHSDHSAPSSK

[5] = target: T2, α4β2 nAChR; type: cell-based
[6] = target: T3, muscle type (α1β1εδ) nAChR (Homo sapiens, UniProt P02708+Q04844+Q07001); type: cell-based
T3 sequence (P02708 21-457): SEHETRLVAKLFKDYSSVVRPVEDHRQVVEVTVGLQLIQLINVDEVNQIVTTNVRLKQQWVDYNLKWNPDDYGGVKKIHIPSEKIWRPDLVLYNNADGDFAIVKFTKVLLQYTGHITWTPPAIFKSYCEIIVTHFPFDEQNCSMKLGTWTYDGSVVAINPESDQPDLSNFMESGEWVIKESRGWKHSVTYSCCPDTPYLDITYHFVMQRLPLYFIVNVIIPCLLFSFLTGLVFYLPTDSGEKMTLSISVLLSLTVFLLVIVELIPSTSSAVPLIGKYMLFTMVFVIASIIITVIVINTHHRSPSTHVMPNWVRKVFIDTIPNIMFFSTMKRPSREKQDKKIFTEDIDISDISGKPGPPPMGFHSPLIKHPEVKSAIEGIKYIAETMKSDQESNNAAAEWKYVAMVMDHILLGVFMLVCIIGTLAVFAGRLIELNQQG
T3 sequence (P11230 24-501 partner): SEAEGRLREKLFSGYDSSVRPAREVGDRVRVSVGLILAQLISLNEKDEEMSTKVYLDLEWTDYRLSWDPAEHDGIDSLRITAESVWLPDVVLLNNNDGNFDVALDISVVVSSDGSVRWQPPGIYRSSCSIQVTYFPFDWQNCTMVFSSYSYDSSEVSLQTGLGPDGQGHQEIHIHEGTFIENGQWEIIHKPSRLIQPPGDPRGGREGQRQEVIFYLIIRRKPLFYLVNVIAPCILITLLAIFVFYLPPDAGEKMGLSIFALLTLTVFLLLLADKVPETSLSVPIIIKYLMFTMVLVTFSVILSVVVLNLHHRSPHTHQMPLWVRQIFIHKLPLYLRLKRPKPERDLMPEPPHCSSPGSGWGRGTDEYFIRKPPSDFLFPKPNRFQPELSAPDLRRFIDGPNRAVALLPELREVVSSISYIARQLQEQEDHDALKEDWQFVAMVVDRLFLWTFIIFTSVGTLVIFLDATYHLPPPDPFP
T3 sequence (Q04844 21-493): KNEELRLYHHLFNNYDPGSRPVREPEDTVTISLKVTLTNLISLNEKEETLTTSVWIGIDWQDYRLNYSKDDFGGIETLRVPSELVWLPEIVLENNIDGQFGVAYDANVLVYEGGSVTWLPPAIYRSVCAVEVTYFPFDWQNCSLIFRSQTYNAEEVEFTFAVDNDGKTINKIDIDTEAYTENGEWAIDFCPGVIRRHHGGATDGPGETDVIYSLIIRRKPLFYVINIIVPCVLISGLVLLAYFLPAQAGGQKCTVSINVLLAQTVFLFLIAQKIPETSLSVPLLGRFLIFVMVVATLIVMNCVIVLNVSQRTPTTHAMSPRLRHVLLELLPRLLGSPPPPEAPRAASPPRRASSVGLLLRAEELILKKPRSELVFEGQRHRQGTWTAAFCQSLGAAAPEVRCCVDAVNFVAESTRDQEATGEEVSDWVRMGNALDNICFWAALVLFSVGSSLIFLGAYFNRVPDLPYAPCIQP
T3 sequence (Q07001 22-517): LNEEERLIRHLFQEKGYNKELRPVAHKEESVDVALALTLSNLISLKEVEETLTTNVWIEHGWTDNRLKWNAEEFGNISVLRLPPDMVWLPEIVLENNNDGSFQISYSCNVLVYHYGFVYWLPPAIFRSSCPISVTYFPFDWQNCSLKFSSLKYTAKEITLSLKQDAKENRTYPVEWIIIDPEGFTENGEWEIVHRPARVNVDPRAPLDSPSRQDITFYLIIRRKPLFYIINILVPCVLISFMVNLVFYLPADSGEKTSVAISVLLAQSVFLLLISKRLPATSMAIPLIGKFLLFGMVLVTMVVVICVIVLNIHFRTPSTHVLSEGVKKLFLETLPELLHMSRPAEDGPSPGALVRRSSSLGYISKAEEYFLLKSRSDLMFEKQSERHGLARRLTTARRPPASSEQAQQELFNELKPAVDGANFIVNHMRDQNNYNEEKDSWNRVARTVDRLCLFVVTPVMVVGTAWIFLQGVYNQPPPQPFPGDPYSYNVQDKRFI

[7] = target: T3, muscle type (α1β1εδ) nAChR; type: cell-based; remark: listed apart in the source
[8] = target: T1, 5HT3 receptors; type: cell-based
[9] = target: T1, 5HT3 receptors; type: cell-based; remark: listed apart in the source
[10] = tested on: α7 nAChR; details: human α7, rat α7; oocytes, transfected cells; ref Briggs et al., 2008; cited from earlier work
[11] = tested on: other nAChR tested; details: α4β2, putative α3β4 (IMR-32); ref Briggs et al., 2008; cited from earlier work

Sequence of α3β4 nAChR (P32297 32-505): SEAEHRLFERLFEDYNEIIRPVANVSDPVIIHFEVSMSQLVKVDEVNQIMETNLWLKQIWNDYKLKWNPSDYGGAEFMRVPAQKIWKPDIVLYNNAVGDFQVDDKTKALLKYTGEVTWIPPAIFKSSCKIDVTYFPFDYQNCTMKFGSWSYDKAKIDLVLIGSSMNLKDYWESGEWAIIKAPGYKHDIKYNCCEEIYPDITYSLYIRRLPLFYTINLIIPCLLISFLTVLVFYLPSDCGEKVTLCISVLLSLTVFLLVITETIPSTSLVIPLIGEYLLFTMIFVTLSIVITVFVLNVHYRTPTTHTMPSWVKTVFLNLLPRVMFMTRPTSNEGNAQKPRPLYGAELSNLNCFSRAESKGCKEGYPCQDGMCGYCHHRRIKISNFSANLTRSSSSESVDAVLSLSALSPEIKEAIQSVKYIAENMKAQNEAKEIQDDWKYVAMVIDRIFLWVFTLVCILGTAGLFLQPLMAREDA
Sequence of α3β4 nAChR (P30926 22-498): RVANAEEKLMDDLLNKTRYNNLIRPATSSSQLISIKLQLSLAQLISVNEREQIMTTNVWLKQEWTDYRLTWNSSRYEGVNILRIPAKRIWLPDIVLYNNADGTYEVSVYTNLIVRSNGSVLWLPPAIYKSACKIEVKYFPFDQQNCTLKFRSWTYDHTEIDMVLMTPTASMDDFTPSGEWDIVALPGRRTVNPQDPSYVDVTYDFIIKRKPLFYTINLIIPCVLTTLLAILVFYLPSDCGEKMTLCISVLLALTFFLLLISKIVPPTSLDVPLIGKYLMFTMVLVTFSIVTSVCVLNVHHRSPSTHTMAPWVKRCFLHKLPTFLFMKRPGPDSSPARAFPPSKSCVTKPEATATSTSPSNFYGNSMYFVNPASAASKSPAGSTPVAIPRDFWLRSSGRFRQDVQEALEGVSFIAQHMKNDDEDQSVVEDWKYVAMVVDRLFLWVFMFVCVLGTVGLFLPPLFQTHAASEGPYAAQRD
Sequence of α7 nAChR (Homo sapiens, UniProt P36544) (P36544 23-502): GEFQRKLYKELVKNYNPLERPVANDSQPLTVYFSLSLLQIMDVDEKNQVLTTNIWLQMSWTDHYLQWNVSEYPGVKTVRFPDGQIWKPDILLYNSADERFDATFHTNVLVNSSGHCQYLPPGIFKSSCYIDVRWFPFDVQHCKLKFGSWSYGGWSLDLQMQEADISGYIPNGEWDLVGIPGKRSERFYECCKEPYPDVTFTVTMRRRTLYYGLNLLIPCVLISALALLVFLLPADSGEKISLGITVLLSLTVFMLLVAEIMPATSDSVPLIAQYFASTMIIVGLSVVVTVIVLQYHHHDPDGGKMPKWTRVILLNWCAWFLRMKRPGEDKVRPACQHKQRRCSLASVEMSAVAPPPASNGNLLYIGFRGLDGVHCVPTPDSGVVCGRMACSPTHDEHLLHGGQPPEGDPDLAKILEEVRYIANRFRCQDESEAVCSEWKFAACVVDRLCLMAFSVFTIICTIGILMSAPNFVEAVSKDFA

SMILES	α4β2 Activity [4]	α4β2 Inhibition [5]	α1β1εδ Activity [6]	α1β1εδ Inhibition [7]	5HT3 Activity [8]	5HT3 Inhibition [9]	α7 Imax [1]	α3β4 Imax [2]	further results
CC[N+]12CCC(CC1)CC2.[I-] [EQN, 1-ethyl-1-azoniabicyclo[2.2.2]octane iodide]	–	–	–	–	–	–	–	–	agonist character at α7 [1]: weak partial agonist; mecamylamine-sensitive current, % of the total current [1]: 58 ± 3%; agonist character at α3β4 [2]: comparable with the current evoked in uninjected oocytes
C[N+]1(C)CCCCC1 [Dimethyl piperidinium]	–	–	–	–	–	–	–	–	Effects on 5HT3 Receptors [3]: Antagonist activity reported
CN1[C@@H]2CCC[C@H]1CC2 [Tropane]	–	–	–	–	–	–	–	–	Effects on 5HT3 Receptors [3]: Neither agonist nor antagonist activity detected
OCCN1CCCCC1 [1-(2-hydroxyethyl)piperidine]	–	–	–	–	–	–	–	–	agonist activity on α7 ([1]; 300 µM, data not shown): inactive
COc1ccc(/C=C2\CN3CCC2CC3)cc1.Cl [MeOBQNZ, (Z)-3-(4-methoxybenzylidene)-1-azoniabicyclo[2.2.2]octane chloride]	N	56 ± 4%	≤1%	76 ± 6%	N	80 ± 16%	0.09 ± 0.01	<0.01	EC50 [1]: 1.1 ± 0.8 µM
O=C(N[C@H]1CN2CCC1CC2)c1cc2ccoc2cn1 [PHA-543,613, N-[(3R)-1-azabicyclo[2.2.2]oct-3-yl]furo[2,3-c]pyridine-5-carboxamide]	–	–	–	–	–	–	–	–	5HT3 receptors, inhibitory activity at ([3]; ref Wishka et al., 2006): Inhibitory activity at ≈ 600 nM
CCN(CC)CCOc1ccc2c(c1)C(=O)c1cc(OCCN(CC)CC)ccc1-2 [Tilorone]	–	–	–	–	–	–	–	–	agonist character at α7 (Summary) [10]: Partial agonist; activity at other nAChR (Summary) [11]: antagonist activity for α4β2 and more potently for putative α3β4
C(=C1/CN2CCC1CC2)/c1ccccc1.Cl [BQNZ, (Z)-3-benzylidene-1-azoniabicyclo[2.2.2]octane chloride]	≈1%	74 ± 6%	≈7%	N.S.	N	95 ± 4%	0.11 ± 0.01	0.10 ± 0.01	EC50 [1]: 7.3 ± 0.7 µM; agonist character at α3β4 [2]: significant activation
C[N+]1(C)CCCC(O)C1 (stereo not shown) [N,N-dimethyl-3-piperidinol]	–	–	–	–	–	–	–	–	agonist activity on α7 [1]: inactive
CN1[C@@H]2CC[C@H]1C[C@@H](OC(=O)c1c[nH]c3ccccc13)C2 [Tropisetron]	–	–	–	–	–	–	–	–	Effects on 5HT3 Receptors ([3]; ref Macor et al., 2001, Papke et al., 2005a): Competitive antagonist
COc1ccc(/C=C2/CN3CCC2CC3)cc1.Cl [MeOBQNE, (E)-3-(4-methoxybenzylidene)-1-azoniabicyclo[2.2.2]-octane chloride]	N	81 ± 2%	N	90 ± 2%	N	94 ± 5%	0.41 ± 0.03	<0.01	–
CC[N+](C)(C)CC [dEdMA, diethyldimethylammonium]	N	52 ± 5%	N	N.S.	N	N.S.	0.95 ± 0.06	0.06 ± 0.01	selectivity classification [1]: α7-selective agonists; EC50 ([1]; read-out: α7 EC50): 197 ± 37 µM; α3β4 efficacy, fold difference (versus ETMA) [2]: greater than 10 fold
C1CN2CCC1CC2 [QN, quinuclidine]	≈2%	74 ± 5%	3%	N.S.	N	N.S.	1.03 ± 0.02	0.64 ± 0.01	Emax ([4]; read-out: α4β2 response, % of the ACh maximal responses): 3.2 ± 0.7%; activation of muscle-type nAChRs [6]: detectable activation; EC50 [1]: 7.2 ± 0.5 µM; agonist character at α7 [1]: potent and fully efficacious agonist; selectivity classification [1]: non-α7-selective; α7 activation at 300 µM [1]: maximal activation; EC50 [2]: 180 ± 10 µM; agonist character at α3β4 [2]: partial agonist; α3β4 efficacy, % that of ACh [2]: 64%; α3β4 response, % of the ACh maximum [2]: 46 ± 2%

Source: paper PMC2999882 (Molecular pharmacology, 2008)
